Counter-ions that a name gives are not always drawn.
Tests used:
[1] = system: Tyk2 kinase activity on STAT4; assay: pSTAT4 cell assay (MSD, NK92 cells); assay type: cell-based; settings: compounds 1 hr
Summary of the method: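 NK92, serum-starved; cpd 1 hr, 10-pt 4-fold from 10 μM; IL2 30 ng/mL 15 min; lyse; MSD with anti-STAT4 Abs; IC50 by 4-PL fit.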

JH2 domain of human Tyk2 = molecular target: T1, JH2 domain of human Tyk2 (Homo sapiens, UniProt P29597); assay: JH2 biochemical assay (TR-FRET probe displacement); assay type: binding
T1 construct: 10×His-tagged TYK2 JH2 domain (amino acid 575-876)
Summary of the method: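 10×His-tagged human TYK2 JH2 (aa 575-876, 2 nM) incubated 60 min with 2 nM fluorescent probe, 0.1 nM Tb anti-His antibody and compound (10-point 3-fold series from […] top). TR-FRET 520/495 nm ratio, falling with probe displacement, normalized and fitted to a 4-parameter logistic for IC50.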

[2] = system: JAK1 kinase activity on STAT3; assay: pSTAT3 cell assay (MSD, TF1 cells, IL-6 stimulated); assay type: cell-based; settings: Homo sapiens, TF-1, compounds 1 hour, 30 ng/mL IL-6 for 15 minutes
Procedure: The inhibitory potency of compounds of the disclosure against the JAK1 kinase activity on STAT3 was evaluated using an MSD-platform plate-based assay format. TF1 cells natively expressing STAT3 and JAK1 were serum-starved to reduce background phosphorylation levels, then cells were treated with compounds of the disclosure for 1 hour with a 10-point four-fold dilution series starting at 10 μM. Cells were then stimulated with 30 ng/mL interleukin 6 (IL-6) for 15 minutes. Cells were lysed and pSTAT3 levels were quantitated using an MSD plate-based assay with anti-STAT3 antibodies. The data were normalized and the percent activity versus log concentration of compound was fitted with a 4-parameter logistic model to generate IC50 curves.

[3] = system: JAK2 kinase activity on STAT5; assay: pSTAT5 cell assay (MSD, TF1 cells, IL-3 stimulated); assay type: cell-based; settings: Homo sapiens, TF-1, compounds 1 hour, 30 ng/mL IL-3 for 15 minutes
Procedure: Compounds of the disclosure were assessed for their ability to inhibit the JAK2 kinase activity on STAT5 utilizing an MSD-platform plate-based assay format. TF1 cells natively expressing STAT5 and JAK2 were serum-starved to reduce background phosphorylation levels, then cells were treated with compounds of disclosure for 1 hour with a 10-point four-fold dilution series starting at 10 μM. Cells were then stimulated with 30 ng/mL IL-3 for 15 minutes. Cells were then lysed and pSTAT5 levels were quantitated using an MSD plate-based assay with anti-STAT5 antibodies. The data were normalized and the percent activity versus log concentration of compound was fitted with a 4-parameter logistic model to generate a curve and an IC50 value.

[4] = TR-FRET probe displacement, JH2 domain of human Tyk2

T1 sequence (P29597 575-876): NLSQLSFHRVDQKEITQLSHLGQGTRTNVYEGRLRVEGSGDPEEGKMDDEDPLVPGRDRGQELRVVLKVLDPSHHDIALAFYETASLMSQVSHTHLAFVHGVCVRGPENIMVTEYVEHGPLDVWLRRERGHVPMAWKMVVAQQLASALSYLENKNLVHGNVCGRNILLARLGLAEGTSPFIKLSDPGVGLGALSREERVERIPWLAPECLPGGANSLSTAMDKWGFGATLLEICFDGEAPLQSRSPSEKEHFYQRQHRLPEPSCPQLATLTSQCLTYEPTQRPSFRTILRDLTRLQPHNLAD

| SMILES | IC50 ([1]; stimulated 15 minutes) | IC50 (JH2 domain of human Tyk2; JH2 biochemical assay) | IC50 [2] | IC50 [3] | IC50 ([1]; then stimulated 15 minutes) | IC50 (JH2 domain of human Tyk2; [4]) |
| --- | --- | --- | --- | --- | --- | --- |
| CC(=O)Nc1cc2c(cn1)C1(CC1)CN2c1nc(C)cc(C(C)(F)F)n1 [Example 83, N-(1′-(4-(1,1-difluoroethyl)-6-methylpyrimidin-2-yl)-1′,2′-dihydrospiro[cyclopropane-1,3′-pyrrolo[3,2-c]pyridin]-6′-yl)acetamide] | 100 to 1000 nM | ≤ 10 nM | ≥ 1000 nM | ≥ 1000 nM | – | – |
| CCC(=O)Nc1cc2c(cn1)C1(CC1)CN2c1cccc(C(C)(F)F)n1 [Example 90, N-(1′-(6-(1,1-difluoroethyl)pyridin-2-yl)-1′,2′-dihydrospiro[cyclopropane-1,3′-pyrrolo[3,2-c]pyridin]-6′-yl)propionamide] | 10 to 100 nM | ≤ 10 nM | ≥ 1000 nM | ≥ 1000 nM | – | – |
| COC1(c2cccc(N3CC4(CC4)c4cnc(NC(C)=O)cc43)n2)COC1 [Example 87, N-(1′-(6-(3-methoxyoxetan-3-yl)pyridin-2-yl)-1′,2′-dihydrospiro[cyclopropane-1,3′-pyrrolo[3,2-c]pyridin]-6′-yl)acetamide] | ≥ 1000 nM | 10 to 100 nM | ≥ 1000 nM | ≥ 1000 nM | – | – |
| COCCNc1cc(N2CC3(CC3)c3cnc(NC(C)=O)cc32)nc(C(C)(F)F)n1 [Example 49, N-(1′-(2-(1,1-difluoroethyl)-6-((2-methoxyethyl)amino)pyrimidin-4-yl)-1′,2′-dihydrospiro[cyclopropane-1,3'-pyrrolo[3,2-c]pyridin]-6'-yl)acetamide] | 10 to 100 nM | ≤ 10 nM | ≥ 1000 nM | ≥ 1000 nM | – | – |
| CC(=O)Nc1cc2c(cn1)C1(CCN(C)CC1)CN2c1cccc(C(C)(F)F)n1 [Example 276, N-(1′-(6-(1,1-difluoroethyl)pyridin-2-yl)-1-methyl-1′,2′-dihydrospiro[piperidine-4,3′-pyrrolo[3,2-c]pyridin]-6′-yl)acetamide trifluoroacetate] | – | ≥ 1000 nM | ≥ 1000 nM | ≥ 1000 nM | – | – |
| CC(=O)Nc1cc2c(cn1)C1(CC1)CN2c1cc(C)nc(C2CCOC2)n1 (centres unmarked) [Example 103, N-(1′-(6-methyl-2-(tetrahydrofuran-3-yl)pyrimidin-4-yl)-1′,2′-dihydrospiro[cyclopropane-1,3′-pyrrolo[3,2-c]pyridin]-6′-yl)acetamide] | 100 to 1000 nM | ≤ 10 nM | – | – | – | – |
| COc1ccc(-c2cc(N3CC4(CC4)c4cnc(NC(C)=O)cc43)nc(C(C)(F)F)n2)cn1 [Example 243, N-(1′-(2-(1,1-difluoroethyl)-6-(6-methoxypyridin-3-yl)pyrimidin-4-yl)-1′,2′-dihydrospiro[cyclopropane-1,3′-pyrrolo[3,2-c]pyridin]-6′-yl)acetamide trifluoroacetate] | 10 to 100 nM | ≤ 10 nM | – | – | – | – |
| CC(=O)Nc1cc2c(cn1)C1(CC1)CN2c1cc(-c2cnn(C)c2C)nc(C(C)(F)F)n1 [Example 240, N-(1′-(2-(1,1-difluoroethyl)-6-(1,5-dimethyl-1H-pyrazol-4-yl)pyrimidin-4-yl)-1′,2′-dihydrospiro[cyclopropane-1,3′-pyrrolo[3,2-c]pyridin]-6′-yl)acetamide trifluoroacetate] | 10 to 100 nM | ≤ 10 nM | – | – | – | – |
| CC(=O)Nc1cc2c(cn1)C1(CC1)CN2c1cc(C)nc(N2CC[C@@H](C#N)C2)n1 [Example 407, (R)-N-(1′-(2-(3-cyanopyrrolidin-1-yl)-6-methylpyrimidin-4-yl)-1′,2′-dihydrospiro[cyclopropane-1,3′-pyrrolo[3,2-c]pyridin]-6′-yl)acetamide] | – | – | – | – | 100 to 1000 nM | ≤ 10 nM |
| CC(=O)Nc1cc2c(cn1)C1(CC1)CN2c1cc(F)nc(C(C)(F)F)n1 [Example 305, N-(1′-(2-(1,1-difluoroethyl)-6-fluoropyrimidin-4-yl)-1′,2′-dihydrospiro[cyclopropane-1,3′-pyrrolo[3,2-c]pyridin]-6′-yl)acetamide trifluoroacetate] | 100 to 1000 nM | 10 to 100 nM | – | – | – | – |
| CCOCc1nc(C)cc(N2CC3(CC3)c3cnc(NC(C)=O)cc32)n1 [Example 59, N-(1′-(2-(ethoxymethyl)-6-methylpyrimidin-4-yl)-1′,2′-dihydrospiro[cyclopropane-1,3′-pyrrolo[3,2-c]pyridin]-6′-yl)acetamide] | ≥ 1000 nM | 100 to 1000 nM | – | – | – | – |
| CCC(C)(O)CCc1cc(N2CC3(CC3)c3cnc(NC(C)=O)cc32)nc(C(C)(F)F)n1 (centres unmarked) [Example 324, N-(1′-(2-(1,1-difluoroethyl)-6-(3-hydroxy-3-methylpentyl)pyrimidin-4-yl)-1′,2′-dihydrospiro[cyclopropane-1,3′-pyrrolo[3,2-c]pyridin]-6′-yl)acetamide] | 10 to 100 nM | ≤ 10 nM | – | – | – | – |
| CC(=O)Nc1cc2c(cn1)C1(CC1)CN2c1nc(C)c(C)s1 [Example 80, N-(1′-(4,5-dimethylthiazol-2-yl)-1′,2′-dihydrospiro[cyclopropane-1,3′-pyrrolo[3,2-c]pyridin]-6′-yl)acetamide] | ≥ 1000 nM | 10 to 100 nM | – | – | – | – |
| COCCOc1cc(N2CC3(CC3)c3cnc(NC(C)=O)cc32)nc(C(C)(F)F)c1 [Example 86, N-(1′-(6-(1,1-difluoroethyl)-4-(2-methoxyethoxy)pyridin-2-yl)-1′,2′-dihydrospiro[cyclopropane-1,3′-pyrrolo[3,2-c]pyridin]-6′-yl)acetamide] | ≤ 10 nM | ≤ 10 nM | – | – | – | – |
| CC(=O)Nc1cc2c(cn1)C1(CC1)CN2c1cc(NCCCF)nc(C(C)(F)F)n1 [Example 164, N-(1′-(2-(1,1-difluoroethyl)-6-((3-fluoropropyl)amino)pyrimidin-4-yl)-1′,2′-dihydrospiro[cyclopropane-1,3′-pyrrolo[3,2-c]pyridin]-6′-yl)acetamide trifluoroacetate] | 10 to 100 nM | ≤ 10 nM | – | – | – | – |
| COCC(F)(F)c1nc(C)cc(N2CC3(CC3)c3cnc(NC(C)=O)cc32)n1 [Example 401, N-(1′-(2-(1,1-difluoro-2-methoxyethyl)-6-methylpyrimidin-4-yl)-1′,2′-dihydrospiro[cyclopropane-1,3′-pyrrolo[3,2-c]pyridin]-6′-yl)acetamide trifluoroacetate] | – | – | – | – | ≥ 1000 nM | 10 to 100 nM |
| COC1CC(c2cc(N3CC4(CC4)c4cnc(NC(C)=O)cc43)nc(C(C)(F)F)n2)C1 (centres unmarked) [Example 23, N-(1′-(2-(1,1-difluoroethyl)-6-(3-methoxycyclobutyl)pyrimidin-4-yl)-1′,2′-dihydrospiro[cyclopropane-1,3′-pyrrolo[3,2-c]pyridin]-6′-yl)acetamid] | 10 to 100 nM | ≤ 10 nM | – | – | – | – |
| CCc1cc(N2CC3(CC3)c3cnc(NC(C)=O)cc32)nc(C)n1 [Example 314, N-(1′-(6-ethyl-2-methylpyrimidin-4-yl)-1′,2′-dihydrospiro[cyclopropane-1,3′-pyrrolo[3,2-c]pyridin]-6′-yl)acetamide] | ≥ 1000 nM | 10 to 100 nM | – | – | – | – |
| CC(=O)Nc1cc2c(cn1)C1(CC1)CN2c1cc(C)cc(N2CCN(C)C(C(F)F)C2)n1 (centres unmarked) [Example 183, N-(1′-(6-(3-(difluoromethyl)-4-methylpiperazin-1-yl)-4-methylpyridin-2-yl)-1′,2′-dihydrospiro[cyclopropane-1,3′-pyrrolo[3,2-c]pyridin]-6′-yl)acetamide] | ≥ 1000 nM | 100 to 1000 nM | – | – | – | – |
| CC(=O)Nc1cc2c(cn1)C1(CC1)CN2c1cc(C)cc(OC2CC(C#N)C2)n1 (centres unmarked) [Example 344, N-(1′-(6-(3-cyanocyclobutoxy)-4-methylpyridin-2-yl)-1′,2′-dihydrospiro[cyclopropane-1,3′-pyrrolo[3,2-c]pyridin]-6′-yl)acetamide trifluoroacetate] | ≥ 1000 nM | 100 to 1000 nM | – | – | – | – |
| CC(=O)Nc1cc2c(cn1)C1(CC1)CN2c1cc(C)cc(N2CC(C)(C#N)C2)n1 [Example 200, N-(1′-(6-(3-cyano-3-methylazetidin-1-yl)-4-methylpyridin-2-yl)-1′,2′-dihydrospiro[cyclopropane-1,3′-pyrrolo[3,2-c]pyridin]-6′-yl)acetamide] | 100 to 1000 nM | 10 to 100 nM | – | – | – | – |
| CC(=O)Nc1cc2c(cn1)C1(CC1)CN2c1nc(C)nc(C)c1F [Example 67, N-(1′-(5-fluoro-2,6-dimethylpyrimidin-4-yl)-1′,2′-dihydrospiro[cyclopropane-1,3′-pyrrolo[3,2-c]pyridin]-6′-yl)acetamide] | ≥ 1000 nM | 100 to 1000 nM | – | – | – | – |
